Reference: US20250034216A1, “STEREOSELECTIVE COVALENT LIGANDS FOR ONCOGENIC AND IMMUNOLOGICAL PROTEINS” (The Scripps Research Institute, priority 2021, published 2025)

Key:
[1] = target: T1, PSME1 22 (Homo sapiens, UniProt Q06323); assay: IA-DTB cysteine engagement, GluC + trypsin digest; type: binding; details: 22Rv1 cells
T1 construct: stereoselectively engaged C22 of endogenous PSME1 in 22Rv1 cells; endogenous in cells; host or cells: 22Rv1
Experimental: Sample preparation: Cells (adherent: 15 cm dishes, suspension: 2 million cells/mL) were treated with electrophilic probes in situ for indicated times and concentrations, washed with ice-cold PBS, and flash frozen in liquid nitrogen. Cell pellets were lysed by sonication (8 pulses, 40% power) in 500 μL ice-cold PBS supplemented with cOmplete protease inhibitors (1 tablet/10 mL of PBS). Whole cell lysates protein content was measured using a standard DC protein assay (Bio-Rad) and 500 μL (2 mg/mL protein content) were treated with 5 μL of 10 mM 1A-DTB (in DMSO) for 1 h at ambient temperature with occasional vortexing. Samples were methanol-chloroform precipitated with the addition of 500 μL ice-cold MeOH and 200 μL CHCl3, vortexed, and centrifuged (10 min, 10,000 g). Without disrupting the protein disk, both top and bottom layers were aspirated and the protein disk was washed with 1 mL ice-cold MeOH and centrifuged (10 min, 10,000 g). The pellets were allowed to air dry, and then re-suspended in 90 μL buffer (9 M urea, 10 mM DTT, 50 mM TEAB pH 8.5). Samples were reduced by heating at 65 C for 20 minutes and water bath sonicated as needed to resuspend the protein pellets, followed by alkylation via addition of 10 μL (500 mM) iodoacetamide and incubated at 37 C for 30 min with shaking. Samples were briefly centrifuged, and probe sonicated once more to ensure complete resuspension, and then diluted with 300 μL buffer (50 mM TEAB pH 8.5) to reach final concentration of 2 M urea. […] Digested samples were then diluted with 300 μL wash buffer (50 mM TEAB pH 8.5, 150 mM NaCl, 0.2% NP-40) containing streptavidin-agarose beads (50 μL of 50% slurry in wash buffer) and were rotated at room temperature for 2 hours. Enriched samples were pelleted by centrifugation (2000 g, 2 min) and transferred to BioSpin columns and washed (3×1 mL wash buffer, 3×1 mL PBS, 3×1 mL water). Enriched peptides were eluted by 300 μL 50% acetonitrile with 0.1% formic acid and eluate was evaporated to dryness via speedvac. IA-DTB labeled and enriched peptides were resuspended in 100 μL EPPS buffer (200 mM, pH 8.0) with 30% acetonitrile, vortexed, and water bath sonicated. Samples were TMT labeled with 3 μL of corresponding TMT tag (5 mg tag resuspended in 256 μL acetonitrile), vortexed, and incubated at room temperature for 1 hour. […]
Data processing: Cysteine engagement ratios (probe vs DMSO) were calculated for each peptide-spectra match by dividing each TMT reporter ion intensity by the average intensity for the channels corresponding to DMSO treatment. […]
Samples were analyzed by liquid chromatography tandem mass-spectrometry using an Orbitrap Fusion mass spectrometer (Thermo Scientific) coupled to an UltiMate 3000 Series Rapid Separation LC system and autosampler (Thermo Scientific Dionex). […]

[2] = system: mRNA splicing in 22Rv1 cells; assay: RNA sequencing, alternative splicing (rMATS); type: cell-based, human; details: 8 hr, RNA-seq
Experimental: RNA sequencing libraries were prepared using the NEBNext Ultra II RNA Library Prep Kit for Illumina following manufacturer's instructions (NEB, Ipswich, MA, USA). mRNAs were first enriched with Oligo(dT) beads. Enriched mRNAs were fragmented for 15 minutes at 94° C. First strand and second strand cDNAs were subsequently synthesized. cDNA fragments were end repaired and adenylated at 3′ends, and universal adapters were ligated to cDNA fragments, followed by index addition and library enrichment by limited-cycle PCR. The sequencing libraries were validated on the Agilent TapeStation (Agilent Technologies, Palo Alto, CA, USA), and quantified by using Qubit 2.0 Fluorometer (Invitrogen, Carlsbad, CA) as well as by quantitative PCR (KAPA Biosystems, Wilmington, MA, USA). FASTQ files were first trimmed using Trim_galore (v0.6.4) to remove sequencing adapters and low quality (Q<15) reads. Trimmed sequencing reads were aligned to the human Hg19 reference genome (GENCODE, GRCh37.p13) using STAR (v2.7.5). SAM files were subsequently converted to BAM files, sorted, and indexed using samtools (v1.9). […] Read counting across genomic features was performed using featureCounts (part of the subread package; v1.5.0) using the following parameters: -p -T 20 -O -F GTF -t exon. […]
For quantification of alternative RNA splicing, BAM files generated by STAR/Samtools were analyzed using rMATS (v4.1.1) using the GENCODE (v19) GTF annotation for Hg19 (GRCh37.p13) and the following parameters: -t paired --libType fr-unstranded—readLength 150—novelSS. To utilize reads shorted than 150b.p. resulting from adapter and/or QC trimming by trim_galore, rMATS was programmed to accept soft-clipped reads of variable length. Enumeration of isoform counts was performed using only reads that span the splice junction directly. To identify high confidence AS events, events were considered significant if (i) the inclusion level difference was greater than 20% compared to DMSO, (ii) the False Discovery Rate (FDR) was smaller than 0.05, and (iii) there were a minimum of 20 reads mapping to the splice junction. […]

T1 sequence (Q06323 whole entry): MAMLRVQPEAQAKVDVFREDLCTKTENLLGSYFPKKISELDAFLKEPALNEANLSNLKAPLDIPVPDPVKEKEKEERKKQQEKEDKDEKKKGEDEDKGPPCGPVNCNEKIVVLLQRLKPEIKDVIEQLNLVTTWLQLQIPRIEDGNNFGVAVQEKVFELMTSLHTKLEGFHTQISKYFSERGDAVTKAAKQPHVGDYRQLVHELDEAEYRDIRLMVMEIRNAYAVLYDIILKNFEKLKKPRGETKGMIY

| Compound | percent engagement relative to DMSO, PSME1 22 ([1]; 5 uM) | percent engagement relative to DMSO, PSME1 22 ([1]; 20 uM) | mRNA splicing changes [2] |
| --- | --- | --- | --- |
| C=CC(=O)N1[C@H](c2ccc3c(c2)OCO3)c2[nH]c3ccccc3c2C[C@H]1C(=O)N1CCOCC1 [WX-02-23, 1-((1R,3S)-1-(benzo[d][1,3]dioxol-S-yl)-3-(morpholine-4-carbonyl)-1,3,4,9-tetrahydro-2H-pyrido [3,4-b]indol-2-yl)prop-2-en-1-one] | −20.9% | −29.44% | induction of both intron retention and exon skipping events |
| C=CC(=O)N1[C@@H](c2ccc3c(c2)OCO3)c2[nH]c3ccccc3c2C[C@@H]1C(=O)N1CCOCC1 [WX-02-43, 1-((1S,3R)-1-(benzo[d][1,3]dioxol-5-yl)-3-(morpholine-4-carbonyl)-1,3,4,9-tetrahydro-2H-pyrido [3,4-b]indol-2-yl)prop-2-en-1-one] | −24.33% | −26.32% | No such splicing effects were observed |
